Test results taken from ChEMBL document CHEMBL1140800, “Identification of 2-amino-5-(thioaryl)thiazoles as inhibitors of nerve growth factor receptor TrkA” (Bioorg Med Chem Lett, 2008).

What was measured:
[1] = target: High affinity nerve growth factor receptor (Homo sapiens, UniProt P04629); test: Inhibition of TrkA
[2] = Antiproliferative activity against rat RKE cells expressing CD8-TrkA after 3 days; assay type: functional, cell-based; conditions: 72 h
[3] = Antiproliferative activity against TrkA deficient rat RK3E cells after 3 days; assay type: functional, cell-based; conditions: 72 h
[4] = tested on: SH-SY5Y; test: Antiproliferative activity against human SH-SY5Y cells after 3 days; assay type: functional, cell-based; conditions: 72 h
[5] = target: Cyclin-dependent kinase 2 (Homo sapiens, UniProt P24941); test: Inhibition of CDK2
[6] = target: Insulin-like growth factor 1 receptor (Homo sapiens, UniProt P08069); test: Inhibition of IGF1R
[7] = target: Hepatocyte growth factor receptor (Homo sapiens, UniProt P08581); test: Inhibition of Met
[8] = Inhibition of VEGFR at 2 uM
[9] = Inhibition of VEGFR

Chain of Insulin-like growth factor 1 receptor (P08069 31-736 limits assumed): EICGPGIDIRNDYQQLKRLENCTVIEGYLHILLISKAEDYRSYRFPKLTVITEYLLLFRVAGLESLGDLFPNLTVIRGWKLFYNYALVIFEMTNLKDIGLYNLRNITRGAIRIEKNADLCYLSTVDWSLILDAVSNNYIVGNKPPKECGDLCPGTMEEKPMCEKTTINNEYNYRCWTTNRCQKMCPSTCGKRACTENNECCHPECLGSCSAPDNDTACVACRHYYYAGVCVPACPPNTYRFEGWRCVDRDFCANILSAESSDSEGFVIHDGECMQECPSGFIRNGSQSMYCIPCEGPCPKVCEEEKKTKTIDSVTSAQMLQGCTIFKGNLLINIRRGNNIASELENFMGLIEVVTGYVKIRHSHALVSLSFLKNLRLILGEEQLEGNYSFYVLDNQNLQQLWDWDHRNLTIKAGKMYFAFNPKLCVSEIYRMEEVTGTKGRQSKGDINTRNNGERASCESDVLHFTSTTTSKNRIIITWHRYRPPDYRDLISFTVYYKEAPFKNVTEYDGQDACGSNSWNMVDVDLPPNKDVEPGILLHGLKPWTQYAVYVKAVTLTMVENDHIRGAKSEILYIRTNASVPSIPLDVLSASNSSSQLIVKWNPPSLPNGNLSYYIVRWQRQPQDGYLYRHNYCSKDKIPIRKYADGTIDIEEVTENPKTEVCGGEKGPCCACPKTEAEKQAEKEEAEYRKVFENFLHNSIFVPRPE
Chain of Insulin-like growth factor 1 receptor (P08069 741-1367 limits assumed): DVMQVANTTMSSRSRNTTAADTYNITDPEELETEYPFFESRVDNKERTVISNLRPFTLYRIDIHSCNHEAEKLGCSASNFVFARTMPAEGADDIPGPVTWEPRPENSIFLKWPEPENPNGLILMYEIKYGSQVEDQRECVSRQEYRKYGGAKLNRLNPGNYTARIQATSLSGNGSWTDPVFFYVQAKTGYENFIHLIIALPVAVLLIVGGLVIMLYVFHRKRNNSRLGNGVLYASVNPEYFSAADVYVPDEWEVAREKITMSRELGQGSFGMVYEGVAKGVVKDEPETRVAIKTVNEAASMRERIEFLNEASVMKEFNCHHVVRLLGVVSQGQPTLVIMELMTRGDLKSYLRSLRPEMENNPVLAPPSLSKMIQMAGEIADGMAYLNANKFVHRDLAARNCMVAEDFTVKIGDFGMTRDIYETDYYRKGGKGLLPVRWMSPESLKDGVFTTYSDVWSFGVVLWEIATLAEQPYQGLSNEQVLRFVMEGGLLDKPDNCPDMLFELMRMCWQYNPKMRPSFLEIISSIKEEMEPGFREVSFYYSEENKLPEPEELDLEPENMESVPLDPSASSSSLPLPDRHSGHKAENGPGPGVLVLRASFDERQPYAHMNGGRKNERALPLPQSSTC
Chain of Hepatocyte growth factor receptor (P08581 whole entry): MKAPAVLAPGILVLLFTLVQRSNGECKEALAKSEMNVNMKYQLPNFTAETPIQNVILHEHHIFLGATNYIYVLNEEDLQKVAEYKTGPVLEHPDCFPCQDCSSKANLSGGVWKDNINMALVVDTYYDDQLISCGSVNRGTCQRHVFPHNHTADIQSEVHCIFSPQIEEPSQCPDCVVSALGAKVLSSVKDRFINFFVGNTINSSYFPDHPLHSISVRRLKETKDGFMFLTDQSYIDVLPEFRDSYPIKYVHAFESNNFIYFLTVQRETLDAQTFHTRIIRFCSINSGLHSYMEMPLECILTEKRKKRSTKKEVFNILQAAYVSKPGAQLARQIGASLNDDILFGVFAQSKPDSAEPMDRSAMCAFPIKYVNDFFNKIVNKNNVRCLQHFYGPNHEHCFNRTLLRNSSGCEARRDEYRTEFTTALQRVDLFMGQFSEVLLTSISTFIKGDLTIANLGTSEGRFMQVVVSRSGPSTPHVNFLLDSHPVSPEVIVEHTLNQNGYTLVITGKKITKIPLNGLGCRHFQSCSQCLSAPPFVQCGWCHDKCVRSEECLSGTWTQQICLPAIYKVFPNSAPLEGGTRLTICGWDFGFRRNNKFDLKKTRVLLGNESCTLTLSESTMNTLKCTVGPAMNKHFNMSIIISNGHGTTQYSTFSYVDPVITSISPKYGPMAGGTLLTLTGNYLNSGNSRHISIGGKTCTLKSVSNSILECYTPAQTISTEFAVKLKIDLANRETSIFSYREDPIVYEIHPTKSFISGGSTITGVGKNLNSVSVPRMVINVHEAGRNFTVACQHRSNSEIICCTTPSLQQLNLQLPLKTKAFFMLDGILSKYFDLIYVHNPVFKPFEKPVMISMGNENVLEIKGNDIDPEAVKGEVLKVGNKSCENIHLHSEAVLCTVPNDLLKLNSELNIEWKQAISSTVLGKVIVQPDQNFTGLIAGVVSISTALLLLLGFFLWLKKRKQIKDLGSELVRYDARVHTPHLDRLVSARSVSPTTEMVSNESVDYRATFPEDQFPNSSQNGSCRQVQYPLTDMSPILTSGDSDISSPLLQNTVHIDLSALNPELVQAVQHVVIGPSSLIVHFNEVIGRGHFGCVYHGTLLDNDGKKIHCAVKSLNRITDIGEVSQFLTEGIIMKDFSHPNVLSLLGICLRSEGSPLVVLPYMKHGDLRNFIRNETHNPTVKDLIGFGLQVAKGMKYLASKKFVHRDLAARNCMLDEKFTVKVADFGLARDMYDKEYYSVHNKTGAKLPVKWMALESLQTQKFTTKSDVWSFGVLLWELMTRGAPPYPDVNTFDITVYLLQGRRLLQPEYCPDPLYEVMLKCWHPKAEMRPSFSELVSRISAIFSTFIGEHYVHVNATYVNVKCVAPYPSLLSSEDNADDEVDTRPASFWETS
Chain of High affinity nerve growth factor receptor (P04629 whole entry): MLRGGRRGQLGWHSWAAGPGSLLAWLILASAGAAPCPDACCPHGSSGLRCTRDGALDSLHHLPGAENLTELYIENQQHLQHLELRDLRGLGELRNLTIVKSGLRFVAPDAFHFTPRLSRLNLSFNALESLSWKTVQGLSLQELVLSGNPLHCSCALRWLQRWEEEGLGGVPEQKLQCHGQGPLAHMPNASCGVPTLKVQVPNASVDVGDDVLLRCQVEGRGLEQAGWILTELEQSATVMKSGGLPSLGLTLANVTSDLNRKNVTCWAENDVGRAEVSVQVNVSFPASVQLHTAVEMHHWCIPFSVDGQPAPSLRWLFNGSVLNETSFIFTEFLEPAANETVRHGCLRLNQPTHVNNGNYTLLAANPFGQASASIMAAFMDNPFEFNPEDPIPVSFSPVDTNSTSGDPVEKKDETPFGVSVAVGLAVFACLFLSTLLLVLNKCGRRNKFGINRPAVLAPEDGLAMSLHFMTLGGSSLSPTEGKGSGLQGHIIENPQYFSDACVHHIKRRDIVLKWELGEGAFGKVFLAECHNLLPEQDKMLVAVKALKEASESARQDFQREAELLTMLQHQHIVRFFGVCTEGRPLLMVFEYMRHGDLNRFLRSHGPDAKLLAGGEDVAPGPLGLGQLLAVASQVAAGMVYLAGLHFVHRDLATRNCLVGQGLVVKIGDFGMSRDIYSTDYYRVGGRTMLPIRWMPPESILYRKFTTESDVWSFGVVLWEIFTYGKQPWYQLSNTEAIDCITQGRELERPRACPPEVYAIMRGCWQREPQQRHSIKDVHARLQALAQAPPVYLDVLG

With `Cc1ccc(Sc2cnc(Nc3ccccn3)s2)cc1C(=O)NCc1ccccc1` the IC50 [1] was greater than 5000 nM.

In the case of `Cc1ccc(Sc2cnc(Nc3ccccn3)s2)cc1C(=O)NC(C)C`, the IC50 [1] is reported as 2000 nM.

With `Cc1ccc(Sc2cnc(Nc3cccc(Br)n3)s2)cc1C(=O)N1CCN(CC(N)=O)CC1` the IC50 [1] was 150 nM.

`Cc1ccc(Sc2cnc(Nc3cccc(Br)n3)s2)cc1C(=O)N(C)CCC#N` showed an IC50 [1] of 10 nM, an IC50 [2] of 370 nM and an IC50 [3] of 3.32 µM. For the same compound, the IC50 [4] was 1170 nM.

With `CC(=O)N1CCN(C(=O)c2cccc(Sc3cnc(Nc4ccc(Br)cn4)s3)c2)CC1` the IC50 [1] was 520 nM.

In the case of `Cc1ccc(Sc2cnc(Nc3ccccn3)s2)cc1C(=O)N1CCNCC1`, the IC50 [1] is reported as 160 nM.

Compound `Cc1ccc(Sc2cnc(Nc3ccccn3)s2)cc1C(N)=O` has an IC50 [1] of 790 nM.

For `CC(=O)N1CCCN(C(=O)c2cc(Sc3cnc(Nc4ccccn4)s3)ccc2C)CC1`, the IC50 [1] was 1100 nM.

`CC(=O)N1CCN(C(=O)c2ccccc2Sc2cnc(Nc3cccc(Br)n3)s2)CC1` showed an IC50 [1] of 1900 nM.

`CCC(=O)N1CCN(C(=O)c2cc(Sc3cnc(Nc4cccc(Br)n4)s3)ccc2C)CC1` showed an IC50 [1] of 21 nM.

In the case of `CC(=O)Nc1ncc(Sc2ccc(C)c(C(=O)N3CCN(C(C)=O)CC3)c2)s1`, the IC50 [1] is reported as greater than 5000 nM.

With `Cc1ccc(Sc2cnc(Nc3ccccn3)s2)cc1C(=O)N1CCN(S(C)(=O)=O)CC1` the IC50 [1] was 910 nM.

`CNCCNC(=O)c1cc(Sc2cnc(Nc3ccccn3)s2)ccc1C` showed an IC50 [1] of 190 nM.

For `Cc1ccc(Sc2cnc(Nc3cccc(Br)n3)s2)cc1C(=O)N1CCN(C(=O)CN)CC1`, the IC50 [1] was 0.6 nM, the IC50 [2] was 550 nM and the IC50 [3] was 4.08 µM. It also gave an IC50 [4] of 3060 nM, an IC50 [5] of 540 nM and an IC50 [6] greater than 1000 nM. For the same compound, the IC50 [7] was 430 nM.

In the case of `CC(=O)N1CCN(Cc2cc(Sc3cnc(Nc4ccccn4)s3)ccc2C)CC1`, the IC50 [1] is reported as 720 nM.

Compound `COC(=O)N1CCN(C(=O)c2cc(Sc3cnc(Nc4ccccn4)s3)ccc2C)CC1` has an IC50 [1] of 210 nM.

In the case of `Cc1ccc(Sc2cnc(Nc3ccccn3)s2)cc1C(=O)NCC#N`, the IC50 [1] is reported as 44 nM.

With `CCN1CCN(C(=O)c2cc(Sc3cnc(Nc4cccc(Br)n4)s3)ccc2C)CC1` the IC50 [1] was 230 nM.

In the case of `Cc1ccc(Sc2cnc(Nc3cccc(Br)n3)s2)cc1C(=O)N(C)CC#N`, the IC50 [1] is reported as 2 nM, the IC50 [2] is reported as 390 nM and the IC50 [3] is reported as 3 µM. For the same compound, the IC50 [4] was 750 nM.

For `Cc1ccc(Sc2cnc(Nc3cccc(Br)n3)s2)cc1C(=O)N1CCN(C(=O)[C@H](C)N)CC1`, the IC50 [1] was 1 nM, the IC50 [2] was 1150 nM and the IC50 [3] was 3.52 µM. The IC50 [4] was 4260 nM, the IC50 [5] was 520 nM and the IC50 [6] was 360 nM. It also gave an IC50 [7] greater than 1000 nM.

For `CNCCN(C)C(=O)c1cc(Sc2cnc(Nc3cccc(Br)n3)s2)ccc1C`, the IC50 [1] was 31 nM, the IC50 [2] was 460 nM and the IC50 [3] was 3.06 µM. The IC50 [4] was 1660 nM, the IC50 [5] was 180 nM and the IC50 [6] was greater than 1000 nM. For the same compound, the IC50 [7] was greater than 1000 nM and the inhibition [8] was 8%.

For `CC(=O)N1CCN(C(=O)c2cc(Sc3cnc(N)s3)ccc2C)CC1`, the IC50 [1] was greater than 5000 nM.

In the case of `CC(=O)N1CCN(C(=O)c2cc(Sc3cnc(Nc4ccccn4)s3)ccc2C)CC1`, the IC50 [1] is reported as 80 nM.

With `CC(=O)NCCNC(=O)c1cc(Sc2cnc(Nc3ccccn3)s2)ccc1C` the IC50 [1] was 320 nM.

`CC(=O)N1CCN(C(=O)c2ccc(Sc3cnc(Nc4cccc(Br)n4)s3)cc2)CC1` showed an IC50 [1] of 1300 nM.

With `Cc1ccc(Sc2cnc(Nc3ccccn3)s2)cc1C(=O)NCCC#N` the IC50 [1] was 65 nM.

`Cc1ccc(Sc2cnc(Nc3ccccn3)s2)cc1NC(=O)CC#N` showed an IC50 [1] of 60 nM.

`CCNC(=O)c1cc(Sc2cnc(Nc3ccccn3)s2)ccc1C` gave an IC50 [1] greater than 5000 nM, an IC50 [2] greater than 10000 nM and an IC50 [3] greater than 10 µM. For the same compound, the IC50 [4] was greater than 10000 nM.

Work on `CC(=O)N1CCN(C(=O)c2cc(Sc3cnc(Nc4cccc(Br)n4)s3)ccc2C)CC1` yielded an IC50 [1] of 1 nM, an IC50 [2] of 250 nM and an IC50 [3] of 2.28 µM. The IC50 [4] was 1140 nM, the IC50 [5] was 490 nM and the IC50 [6] was greater than 1000 nM. It also gave an IC50 [7] greater than 1000 nM and an IC50 [9] greater than 25 µM.

With `C#CCNC(=O)c1cc(Sc2cnc(Nc3ccccn3)s2)ccc1C` the IC50 [1] was 1200 nM.

Work on `CC(=O)N1CCN(C(=O)c2cccc(Sc3cnc(Nc4cccc(C)n4)s3)c2)CC1` yielded an IC50 [1] of 1100 nM.

For `CC(=O)N1CCN(C(=O)c2cccc(Sc3cnc(Nc4cccc(Br)n4)s3)c2)CC1`, the IC50 [1] was 50 nM.

With `CC(=O)N1CCN(C(=O)c2cccc(Sc3cnc(Nc4ccccn4)s3)c2)CC1` the IC50 [1] was 240 nM.

In the case of `Cc1ccc(Sc2cnc(Nc3cccc(Br)n3)s2)cc1C(=O)N1CCN(C(=O)[C@@H](C)N)CC1`, the IC50 [1] is reported as 1 nM, the IC50 [2] is reported as 230 nM and the IC50 [3] is reported as 3.61 µM. The IC50 [4] was 1780 nM, the IC50 [5] was 230 nM and the IC50 [6] was 700 nM. It also gave an IC50 [7] of 170 nM.

`Cc1ccc(Sc2cnc(Nc3cccc(Br)n3)s2)cc1C(=O)NCCC#N` showed an IC50 [1] of 67 nM.

In the case of `Cc1ccc(Sc2cnc(Nc3ccccn3)s2)cc1C(=O)NCCO`, the IC50 [1] is reported as 760 nM.
